Measurements from PMC8282797, “Strictly regulated agonist-dependent activation of AMPA-R is the key characteristic of TAK-653 for robust synaptic responses and cognitive improvement” (Scientific Reports, 2021).

Columns and labels:
naïve rats = test: Novel object recognition (NOR) test; assay type: in vivo, rat; details: p.o., rats
Description: NOR tests were performed using male Long-Evans rats at 6 weeks old as previously described, with some modifications. On day 1, rats were allowed to habituate to the empty test box (a gray-colored polyvinyl chloride box (40 × 40 × 50 cm)) for 10 min individually. Testing comprised two 3-min trials called the acquisition trial and the retention trial that were separated by 48 h inter-trial intervals (ITIs). On day 2, in the acquisition trial, rats were allowed to explore two identical objects (A1 and A2) for 3 min. On day 4, in the retention trial, rats were again allowed to explore a familiar object (A3) and a novel object (B) for 3 min. The object exploration was defined as rats' licking, sniffing or touching the object with forelimbs while sniffing. TAK-653 or AMPA was orally or intraperitoneally, respectively, 2 h or 0.5 h prior to the acquisition and the retention trials. The NDI was calculated using the following equation: novel object interaction/total interaction × 100 (%).

AMPA-R = test: Ca2+ influx assay using rat primary hippocampal neurons; assay type: cell-based
Description: Ca^2+ influx assay using primary neurons was performed as previously described. After 5 days of culture, the cells plated on poly-D-lysine coated 96-well plates (Corning Incorporated) at 2 × 10^4 or 5 × 10^4 cells/well were used for experiments with PF-04958242 or TAK-653, respectively. Fluorescent calcium indicator dye solution (Calcium4 assay Kit, Dojindo, Kumamoto, Japan) in Ca^2+ reaction buffer (DMEM, HEPES and BSA) containing Probenecid (Dojindo) was added and incubated for 60 min in 5% CO2 at 37 °C. After washing once, the relative increases in intracellular Ca^2+ levels stimulated by compounds in the presence and absence of AMPA were monitored. Details are described in the Supplementary Information.
Primary cultures of hippocampal neuronal cells were prepared from fetal Sprague-Dawley rats at 19 days of gestation. Rat embryos were decapitated and their whole brains were isolated. Hippocampi were dissected in ice-cold Hanks' Balanced Salt Solutions (HBSS) under a microscope and then dispersed into cells using a neural cell dispersion kit (Sumitomo Bakelite Co., Ltd., Tokyo, Japan). The dissociated cells were suspended in Neurobasal medium containing B27 supplement (Thermo Fisher Scientific Inc.), 2 mM L-glutamine (Lonza, Basel, Switzerland), 100 U/mL penicillin (Lonza), 100 μg/mL streptomycin (Lonza) and 20 μg/mL gentamicin sulfate (Lonza). The cells were plated on poly-D-lysine coated 96-well plates (Corning Incorporated) for Ca^2+ influx assay or on poly-L-lysine coated 96-well plates (Sumitomo Bakelite) for measurement of BDNF protein levels and cultured in a humidified CO2 incubator with 5% CO2 at 37°C.
After 5 days of culture, the cells at 2×10^4 or 5×10^4 cells/well were used for experiments with PF-04958242 or TAK-653, respectively. For TAK-653, after removal of culture medium, 75 µL of fluorescent calcium indicator dye solution (Calcium4 assay Kit, Dojindo, Kumamoto, Japan) in Ca^2+ reaction buffer (DMEM, 10 mM HEPES and 0.1% BSA) containing 1.25 mM Probenecid (Dojindo) was added and incubated for 60 min in 5% CO2 at 37°C and washed once using 75 µL of fluorescent calcium indicator dye solution. After addition of 75 µL of fluorescent calcium indicator dye solution to each well again, the relative increases in intracellular Ca^2+ levels by compounds in the presence and absence of 5 μM AMPA were monitored for 8.5 min by fluorometric imaging plate reader. Activity of the compound was defined as fluorescence intensity integrated over the entire period of measurement. Intensity of 0% was defined as activity in the presence of only DMSO, while 100% was defined as activity in the presence of 5 μM AMPA and 10 μM HBT1. For PF-04958242, after removal of culture medium, 90 µL of fluorescent calcium indicator dye solution (Calcium4 assay Kit, Dojindo) in Ca^2+ reaction buffer (DMEM, 20 mM HEPES and 0.1% BSA) containing 2.5 mM Probenecid (Dojindo) was added and incubated for 60 min in 5% CO2 at 37°C. After addition of 90 µL of fluorescent calcium indicator dye solution to each well again, the relative increases in intracellular Ca^2+ levels by compounds in the presence and absence of 1 μM AMPA were monitored for 2 min in a microplate reader (CellLux, PerkinElmer, Waltham, MA, USA). Activity of the compound was defined as fluorescence intensity integrated over the entire period of measurement. 100% was defined as activity in the presence of 1 μM AMPA and 10 μM HBT1, while intensity of 0% was defined as activity in the presence of 1 μM AMPA or only DMSO for potentiator effect or agonistic effect, respectively. EC50 values were calculated by logistic regression analysis.

[1] = system: MK-801-induced working memory deficit in rats; test: Radial arm maze (RAM) test, MK-801-induced working memory deficit; assay type: in vivo, rat; details: given 0.5 h before MK-801 0.08 mg/kg, s.c.
Description: RAM tests were performed using 9-week-old male Long-Evans rats as previously described with a minor modification. Each arm was 50 cm long, 10 cm wide and 40 cm high, and the maze was elevated 50 cm above the floor. Long-Evans rats were food-restricted to 85% of free-feeding body weight throughout the experimental period. Rats were well trained to collect pellets placed on the edge of each arm. The learning criterion for the testing session was defined as 2 errors or fewer for 2 consecutive days. In the testing session, each rat was placed on the maze facing the fixed arm at the start of the trial. The entry of rats into each arm was recorded in sequence until all pellets in the 8 arms were consumed, or 5 min had elapsed. […] Thirty min after dosing of vehicle or MK-801, rats were placed on the maze. Details are described in the Supplementary Information.
The experiment was performed using 9-week-old male Long-Evans rats as described previously (Zajaczkowski et al., 1996) with a minor modification. Each arm was 50 cm long, 10 cm wide and 40 cm high, and the maze was elevated 50 cm above the floor. After being fasted for 24 h, male Long-Evans rats were food-restricted to 85% of free-feeding body weight on the first day of exposure to the maze and throughout the experimental period. The experiment consists of two sessions, training and testing session. In the training session, rats were habituated to the maze and then trained. Reinforcement consisted of 3 food pellets (45 mg each) in the food cup was used. On the first day of habituation to the maze, reinforcements were placed near the entrance and at the mid-point of each arm. Three rats were placed on the maze at one time and allowed to explore and consume the pellets for 8 min. On the second day of habituation, each rat was placed on the maze and allowed 5 min to consume the pellets placed at the mid-point and in the food cup at the end of each arm. From the third day, reinforcement was placed in the food cup at the end of each arm. Rats were well trained to collect pellets placed on the edge of each arm. The learning criterion for the testing session was defined as 2 errors or less for two consecutive days. In the previous day of the testing session, baseline level of performance was qualified to confirm that rats completed collecting all pellets placed in the 8 arms with two errors or less. In the testing session, each rat was placed on the maze facing away from the experimenter and facing the fixed arm at the start of the trial. The entry of rats into each arm was recorded in sequence. Rats were allowed to explore until all pellets in the 8 arms were consumed, or 5 min had elapsed. Entry into an arm previously chosen was counted as an error. […] […] Thirty min after dosing of vehicle or MK-801, rats were placed on the maze. Data were indicated as the mean ± SEM in the testing session.

SMILES: CC(C)S(=O)(=O)N[C@H]1COC[C@H]1Oc1ccc(-c2ccc(C#N)s2)cc1 [PF-04958242, N-{(3S,4S)-4-[4-(5-cyano-2-thienyl)phenoxy]tetrahydrofuran-3-yl}propane-2-sulfonamide]
- Dose improving visual learning and memory in NOR test (naïve rats): ≥ 0.1 mg/kg
- Agonistic effect: Ca2+ increase in the absence of AMPA (AMPA-R): potently produced a Ca^2+ increase in the absence of AMPA
- Working memory in the RAM test [1]: did not improve
